Tests used:
Type in all cases: in vivo
[1] = test system: ivy-leaved morning glory (Ipomoea hederacea); experiment: Test G Pre-Emergence Protocol; conditions: Ipomoea, pre-emergence, 312 h, evaluated after 13 days; for pest or weed control at 15.625 g/ha: 15.625 g ai/ha; for pest or weed control at 15.625 g/ha / pest or weed control at 250 g/ha: read-out: Morningglory, Ivy-leaved damage rating (100=total damage to plant; 0=no damage to plant); for pest or weed control at 62.5 g/ha: 62.5 g ai/ha, 100=total damage to plant, 0=no damage to plant, read-out: Morningglory, Ivy-leaved damage rating; for pest or weed control at 250 g/ha: 250 g ai/ha
Procedure, shortened: (§1)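 Herbicidal effect was rated 13 days post-application on a scale where 100 equals total damage. Spraying took place the day after sowing, using 15.625, 62.5 or 250 g/ha of compound in a 50:50 acetone/water solution with 0.5% Tween 20.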

[2] = test system: giant foxtail (Setaria faberi); experiment: Test G Pre-Emergence Protocol; conditions: Setaria faberi, pre-emergence, 312 h, evaluated after 13 days; for pest or weed control at 15.625 g/ha: 15.625 g ai/ha; for pest or weed control at 15.625 g/ha / pest or weed control at 250 g/ha: read-out: Foxtail, Giant damage rating (100=total damage to plant; 0=no damage to plant); for pest or weed control at 62.5 g/ha: 62.5 g ai/ha, 100=total damage to plant, 0=no damage to plant, read-out: Foxtail, Giant damage rating; for pest or weed control at 250 g/ha: 250 g ai/ha
Procedure, shortened: as §1

[3] = test system: barnyardgrass (Echinochloa crus-galli); experiment: Test G Pre-Emergence Protocol; conditions: Echinochloa crus-galli, pre-emergence, 312 h, evaluated after 13 days; for pest or weed control at 15.625 g/ha: 15.625 g ai/ha; for pest or weed control at 15.625 g/ha / pest or weed control at 250 g/ha: read-out: Barnyardgrass damage rating (100=total damage to plant; 0=no damage to plant); for pest or weed control at 62.5 g/ha: 62.5 g ai/ha, 100=total damage to plant, 0=no damage to plant, read-out: Barnyardgrass damage rating; for pest or weed control at 250 g/ha: 250 g ai/ha
Procedure, shortened: as §1

[4] = test system: redroot pigweed (Amaranthus retroflexus); experiment: Test G Pre-Emergence Protocol; conditions: Amaranthus retroflexus, pre-emergence, 312 h, evaluated after 13 days; for pest or weed control at 15.625 g/ha: 15.625 g ai/ha; for pest or weed control at 15.625 g/ha / pest or weed control at 250 g/ha: read-out: Pigweed, Redroot damage rating (100=total damage to plant; 0=no damage to plant); for pest or weed control at 62.5 g/ha: 62.5 g ai/ha, 100=total damage to plant, 0=no damage to plant, read-out: Pigweed, Redroot damage rating; for pest or weed control at 250 g/ha: 250 g ai/ha
Procedure, shortened: as §1

[5] = test system: velvetleaf (Abutilon theophrasti); experiment: Test G Pre-Emergence Protocol; conditions: Abutilon theophrasti, pre-emergence, 312 h, evaluated after 13 days; for pest or weed control at 15.625 g/ha: 15.625 g ai/ha; for pest or weed control at 15.625 g/ha / pest or weed control at 250 g/ha: read-out: Velvetleaf damage rating (100=total damage to plant; 0=no damage to plant); for pest or weed control at 62.5 g/ha: 62.5 g ai/ha, 100=total damage to plant, 0=no damage to plant, read-out: Velvetleaf damage rating; for pest or weed control at 250 g/ha: 250 g ai/ha
Procedure, shortened: as §1

corn (Zea mays) [6] = experiment: Test G Pre-Emergence Protocol; conditions: Zea mays, pre-emergence, 312 h, evaluated after 13 days; for plant injury at 15.625 g/ha: 15.625 g ai/ha; for plant injury at 15.625 g/ha / plant injury at 250 g/ha: read-out: Corn damage rating (100=total damage to plant; 0=no damage to plant); for plant injury at 62.5 g/ha: 62.5 g ai/ha, 100=total damage to plant, 0=no damage to plant, read-out: Corn damage rating; for plant injury at 250 g/ha: 250 g ai/ha
Procedure, shortened: as §1

[7] = test system: ivy-leaved morning glory (Ipomoea hederacea); experiment: Test G Post-Emergence Protocol; conditions: Ipomoea, post-emergence, 312 h, read-out: Morningglory, Ivy-leaved damage rating; for pest or weed control at 15.625 g/ha: 15.625 g ai/ha, evaluated after 13 days (100=total damage to plant; 0=no damage to plant); for pest or weed control at 62.5 g/ha: 62.5 g ai/ha; for pest or weed control at 62.5 g/ha / pest or weed control at 250 g/ha: evaluated after 13 days, 100=total damage to plant, 0=no damage to plant; for pest or weed control at 250 g/ha: 250 g ai/ha
Procedure, shortened: (§2)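 Eight days post-sowing, plants received a spray of test compound (acetone/water 50:50, 0.5% Tween 20) at 15.625, 62.5 or 250 g/ha. Glasshouse regime thereafter: 24/16 °C, 14 h light, 65% humidity. Assessment after 13 days on a 0–100 damage scale.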

[8] = test system: giant foxtail (Setaria faberi); experiment: Test G Post-Emergence Protocol; conditions: Setaria faberi, post-emergence, 312 h, read-out: Foxtail, Giant damage rating; for pest or weed control at 15.625 g/ha: 15.625 g ai/ha, evaluated after 13 days (100=total damage to plant; 0=no damage to plant); for pest or weed control at 62.5 g/ha: 62.5 g ai/ha; for pest or weed control at 62.5 g/ha / pest or weed control at 250 g/ha: evaluated after 13 days, 100=total damage to plant, 0=no damage to plant; for pest or weed control at 250 g/ha: 250 g ai/ha
Procedure, shortened: as §2

[9] = test system: barnyardgrass (Echinochloa crus-galli); experiment: Test G Post-Emergence Protocol; conditions: Echinochloa crus-galli, post-emergence, 312 h, read-out: Barnyardgrass damage rating; for pest or weed control at 15.625 g/ha: 15.625 g ai/ha, evaluated after 13 days (100=total damage to plant; 0=no damage to plant); for pest or weed control at 62.5 g/ha: 62.5 g ai/ha; for pest or weed control at 62.5 g/ha / pest or weed control at 250 g/ha: evaluated after 13 days, 100=total damage to plant, 0=no damage to plant; for pest or weed control at 250 g/ha: 250 g ai/ha
Procedure, shortened: as §2

[10] = test system: redroot pigweed (Amaranthus retroflexus); experiment: Test G Post-Emergence Protocol; conditions: Amaranthus retroflexus, post-emergence, 312 h, read-out: Pigweed, Redroot damage rating; for pest or weed control at 15.625 g/ha: 15.625 g ai/ha, evaluated after 13 days (100=total damage to plant; 0=no damage to plant); for pest or weed control at 62.5 g/ha: 62.5 g ai/ha; for pest or weed control at 62.5 g/ha / pest or weed control at 250 g/ha: evaluated after 13 days, 100=total damage to plant, 0=no damage to plant; for pest or weed control at 250 g/ha: 250 g ai/ha
Procedure, shortened: as §2

[11] = test system: velvetleaf (Abutilon theophrasti); experiment: Test G Post-Emergence Protocol; conditions: Abutilon theophrasti, post-emergence, 312 h, read-out: Velvetleaf damage rating; for pest or weed control at 15.625 g/ha: 15.625 g ai/ha, evaluated after 13 days (100=total damage to plant; 0=no damage to plant); for pest or weed control at 62.5 g/ha: 62.5 g ai/ha; for pest or weed control at 62.5 g/ha / pest or weed control at 250 g/ha: evaluated after 13 days, 100=total damage to plant, 0=no damage to plant; for pest or weed control at 250 g/ha: 250 g ai/ha
Procedure, shortened: as §2

corn (Zea mays) [12] = experiment: Test G Post-Emergence Protocol; conditions: Zea mays, post-emergence, 312 h, read-out: Corn damage rating; for plant injury at 15.625 g/ha: 15.625 g ai/ha, evaluated after 13 days (100=total damage to plant; 0=no damage to plant); for plant injury at 62.5 g/ha: 62.5 g ai/ha; for plant injury at 62.5 g/ha / plant injury at 250 g/ha: evaluated after 13 days, 100=total damage to plant, 0=no damage to plant; for plant injury at 250 g/ha: 250 g ai/ha
Procedure, shortened: as §2

Row | Compound | pest or weed control at 15.625 g/ha [1] | pest or weed control at 62.5 g/ha [1] | pest or weed control at 250 g/ha [1] | pest or weed control at 15.625 g/ha [2] | pest or weed control at 62.5 g/ha [2] | pest or weed control at 250 g/ha [2] | pest or weed control at 15.625 g/ha [3] | pest or weed control at 62.5 g/ha [3] | pest or weed control at 250 g/ha [3] | pest or weed control at 15.625 g/ha [4] | pest or weed control at 62.5 g/ha [4] | pest or weed control at 250 g/ha [4] | pest or weed control at 15.625 g/ha [5] | pest or weed control at 62.5 g/ha [5] | pest or weed control at 250 g/ha [5] | plant injury at 15.625 g/ha (corn (Zea mays) [6]) | plant injury at 62.5 g/ha (corn (Zea mays) [6]) | plant injury at 250 g/ha (corn (Zea mays) [6]) | pest or weed control at 15.625 g/ha [7] | pest or weed control at 62.5 g/ha [7] | other results
1 | CN1C[C@H](c2ccc(C#N)c(C(F)(F)F)c2)[C@@H](C(=O)Nc2ccccc2S(C)(=O)=O)C1=O (racemic) [Compound 1796] | 0% | 0% | 0% | 0% | 0% | 0% | 0% | 0% | 0% | 0% | 0% | 20% | 0% | 0% | 10% | 0% | 0% | 0% | 0% | 10% | pest or weed control at 250 g/ha [7]: 10%; pest or weed control at 15.625 g/ha [8]: 0%; pest or weed control at 62.5 g/ha [8]: 0%; pest or weed control at 250 g/ha [8]: 0%; pest or weed control at 15.625 g/ha [9]: 0%; pest or weed control at 62.5 g/ha [9]: 0%; pest or weed control at 250 g/ha [9]: 0%; pest or weed control at 15.625 g/ha [10]: 0%; pest or weed control at 62.5 g/ha [10]: 10%; pest or weed control at 250 g/ha [10]: 20%; pest or weed control at 15.625 g/ha [11]: 0%; pest or weed control at 62.5 g/ha [11]: 0%; pest or weed control at 250 g/ha [11]: 0%; plant injury at 15.625 g/ha (corn (Zea mays) [12]): 0%; plant injury at 62.5 g/ha (corn (Zea mays) [12]): 0%; plant injury at 250 g/ha (corn (Zea mays) [12]): 0%
2 | Cc1c(F)cccc1NC(=O)[C@@H]1C(=O)N(C)C[C@H]1c1cccc(OCC(F)(F)F)c1 (racemic) [Compound 1764] | 0% | 0% | 20% | 60% | 70% | 80% | 40% | 70% | 80% | 0% | 10% | 30% | 0% | 10% | 30% | 0% | 20% | 70% | 10% | 30% | pest or weed control at 250 g/ha [7]: 70%; pest or weed control at 15.625 g/ha [8]: 70%; pest or weed control at 62.5 g/ha [8]: 80%; pest or weed control at 250 g/ha [8]: 80%; pest or weed control at 15.625 g/ha [9]: 40%; pest or weed control at 62.5 g/ha [9]: 50%; pest or weed control at 250 g/ha [9]: 80%; pest or weed control at 15.625 g/ha [10]: 0%; pest or weed control at 62.5 g/ha [10]: 10%; pest or weed control at 250 g/ha [10]: 30%; pest or weed control at 15.625 g/ha [11]: 20%; pest or weed control at 62.5 g/ha [11]: 40%; pest or weed control at 250 g/ha [11]: 60%; plant injury at 15.625 g/ha (corn (Zea mays) [12]): 10%; plant injury at 62.5 g/ha (corn (Zea mays) [12]): 10%; plant injury at 250 g/ha (corn (Zea mays) [12]): 70%
